Measurements taken from JP2008179567A, “ピラジン誘導体を有効成分とする抗がん剤” (Toray Industries Inc, priority 2007, dated 2008).

Columns and labels:
[1] = tested on: tumor derived from Colon26 cells, mouse colon cancer model [Colon26細胞由来の腫瘍, マウス結腸癌モデル]; experiment: Tumor growth inhibition in mouse colon cancer model (Colon26, BALB/c); assay type: in vivo; conditions: 50 mg/kg i.v., sodium salt
[2] = Body weight and organ damage in mouse colon cancer model; assay type: in vivo; conditions: end of test, 50 mg/kg i.v.; sodium salt

Nc1nn(-c2cncc(-n3ccc(CC(=O)O)c3)n2)c2cc(Cl)ccc12 [参考例6, 2-{1-[6-(3-アミノ-6-クロロ-1H-インダゾリル)ピラジン-2-イル]ピロール-3-イル}酢酸]
estimated tumor volume ([1]; from day 5 after start of dosing, compared with control group (Fig. 1)): 対照群に比較して小さくなった
tumor growth rate ([1]; day 7 after start of dosing, n=10, relative to estimated tumor volume on day 1, control 1068±197%, P=0.02 (Fig. 2)): 493±81%
tumor weight ([1]; day 15 after start of dosing, n=10, control 2.11±0.25 g, P=0.20): 1.57 ± 0.31 g
reduction of tumor weight ([1]; day 15 after start of dosing, vs control group, P=0.20): 25%
body weight difference from control group [2]: 体重の差はなく
organ damage [2]: 各臓器の障害は何ら認められなかった
